The values below come from PubChem BioAssay AID330 (DTP/NCI, 2004).

Values joined by “and” are separate entries in the source; they are usually repeats but may differ in a detail not shown here. Equal values may be shown once. Inconclusive results and toxic doses are left out. Peptide text beside a SMILES is read from it. * marks the point of attachment. Boc = CC(C)(C)OC(=O)*

The subject of this experiment is P388 leukemia ip, CD2F1 mice, survival T/C. The experiment is described as follows: NCI In Vivo Anticancer Drug Screen. Data for tumor model P388 Leukemia (intraperitoneal) in CD2F1 (CDF1) mice. Conditions: endpoint: median survival time, higher = longer survival. In a few lines:
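Mice carrying the transplanted tumor received test compound or vehicle. Survival was recorded in each group, and the value is the treated-group measurement divided by that of the vehicle-treated control group.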

Setting [1] is: dose: 50.0 mg/kg/injection, schedule: Q01DX009 (ip), vehicle: saline with Tween-80.
[2] abbreviates: dose: 50.0 mg/kg/injection, schedule: Q01DX005 (ip), vehicle: saline.
Setting [3] is: dose: 50.0 mg/kg/injection, schedule: Q01DX009 (ip), vehicle: saline.
Setting [4] is: dose: 100.0 mg/kg/injection, schedule: Q01DX005 (ip), vehicle: saline.
Setting [5] is: dose: 100.0 mg/kg/injection, schedule: Q01DX009 (ip), vehicle: saline.
[6] abbreviates: dose: 50.0 mg/kg/injection, schedule: Q01DX005 (ip), vehicle: Klucel (hydroxypropylcellulose) (HPC).
Where [7] appears, read: dose: 100.0 mg/kg/injection, schedule: Q01DX005 (ip), vehicle: Klucel (hydroxypropylcellulose) (HPC).
Where [8] appears, read: dose: 200.0 mg/kg/injection, schedule: Q01DX005 (ip), vehicle: Klucel (hydroxypropylcellulose) (HPC).
The mark [9] stands for this setting: dose: 25.0 mg/kg/injection, schedule: Q04DX003 (ip), vehicle: saline with Tween-80.
[10] abbreviates: dose: 50.0 mg/kg/injection, schedule: Q04DX003 (ip), vehicle: saline with Tween-80.
[11] abbreviates: dose: 50.0 mg/kg/injection, schedule: Q01DX005 (ip), vehicle: saline with Tween-80.
Setting [12] is: dose: 100.0 mg/kg/injection, schedule: Q01DX005 (ip), vehicle: saline with Tween-80.

In the case of `O=[N+]([O-])/C=C/c1ccccc1`, the T/C was 100 % of control (dose: 5.0 mg/kg/injection, schedule: Q01DX009 (ip), vehicle: saline sonified); 100 % of control (dose: 10.0 mg/kg/injection, schedule: Q01DX009 (ip), vehicle: saline sonified); 100 % of control (dose: 20.0 mg/kg/injection, schedule: Q01DX009 (ip), vehicle: saline sonified).
As to `CCCCCCCCCCC(CCCCCC)C(=O)O` (stereo unspecified), the T/C is, setting by setting: (dose: 75.0 mg/kg/injection, schedule: Q01DX001 (ip), vehicle: saline with Tween-80) 104 % of control; (dose: 150.0 mg/kg/injection, schedule: Q01DX001 (ip), vehicle: saline with Tween-80) 104 % of control; (dose: 300.0 mg/kg/injection, schedule: Q01DX001 (ip), vehicle: saline with Tween-80) 100 % of control.
As for `C/C=C/C[P+](c1ccccc1)(c1ccccc1)c1cccc2ccccc12`, the T/C by setting is: (dose: 6.25 mg/kg/injection, schedule: Q04DX002 (ip), vehicle: saline with Tween-80) 121 % of control; (dose: 12.5 mg/kg/injection, schedule: Q04DX002 (ip), vehicle: saline with Tween-80) 99 % of control; (dose: 25.0 mg/kg/injection, schedule: Q04DX002 (ip), vehicle: saline with Tween-80) 108 % of control.
As for `CN(C)CC(O)Cn1ccnc1[N+](=O)[O-]` (stereo unspecified), the T/C reads like this: (dose: 12.5 mg/kg/injection, schedule: Q01DX009 (ip), vehicle: water) 101 % of control; (dose: 25.0 mg/kg/injection, schedule: Q01DX009 (ip), vehicle: water) 101 % of control; (dose: 50.0 mg/kg/injection, schedule: Q01DX009 (ip), vehicle: water) 111 % of control; (dose: 100.0 mg/kg/injection, schedule: Q01DX009 (ip), vehicle: water) 111 % of control; (dose: 200.0 mg/kg/injection, schedule: Q01DX009 (ip), vehicle: water) 113 % of control.
For the compound `CN(C)CCOc1ccc2c(c1)CC/C(=C\c1ncc([N+](=O)[O-])n1C)C2=O`, the T/C (dose: 12.5 mg/kg/injection, schedule: Q01DX009 (ip), vehicle: saline with Tween-80) was 108 % of control; the T/C (dose: 25.0 mg/kg/injection, schedule: Q01DX009 (ip), vehicle: saline with Tween-80) was 108 % of control; the T/C under setting [1] was 109 % of control and 118 % of control.
With `CC(N)C(=O)NC(CC(N)=O)C(=O)O` (stereo unspecified), the T/C by setting is: under setting [2], 105 % of control; under setting [3], 101 % of control; under setting [4], 110 % of control; under setting [5], 94 % of control; (dose: 200.0 mg/kg/injection, schedule: Q01DX005 (ip), vehicle: saline) 94 % of control; (dose: 200.0 mg/kg/injection, schedule: Q01DX009 (ip), vehicle: saline) 93 % of control.
As for `Nn1cnnc1SCc1ccccc1`, the T/C (dose: 100.0 mg/kg/injection, schedule: Q01DX001 (ip), vehicle: other) is 100 % of control; the T/C (dose: 200.0 mg/kg/injection, schedule: Q01DX001 (ip), vehicle: other) was 100 % of control; the T/C (dose: 400.0 mg/kg/injection, schedule: Q01DX001 (ip), vehicle: other) was 100 % of control.
Consider `COc1cc(-c2oc3ccccc3c(=O)c2O)cc(OC)c1OC`, for which the T/C is 93 % of control under setting [1]; 91 % of control (dose: 100.0 mg/kg/injection, schedule: Q01DX009 (ip), vehicle: saline with Tween-80); 93 % of control (dose: 200.0 mg/kg/injection, schedule: Q01DX009 (ip), vehicle: saline with Tween-80).
Consider `CNC(=O)O/N=C(\CN=[N+]=[N-])C(C)(C)C`, for which the T/C (dose: 0.78 mg/kg/injection, schedule: Q01DX009 (ip), vehicle: saline with Tween-80) is 93 % of control.
`Cc1ccc(/C=C/C(=O)C(C)CN(C)C)cc1` (stereo unspecified): the T/C runs as follows: (dose: 15.0 mg/kg/injection, schedule: Q01DX005 (ip), vehicle: saline) 100 % of control; (dose: 30.0 mg/kg/injection, schedule: Q01DX005 (ip), vehicle: saline) 99 % of control; (dose: 60.0 mg/kg/injection, schedule: Q01DX005 (ip), vehicle: saline) 98 % of control and 100 % of control; (dose: 120.0 mg/kg/injection, schedule: Q01DX005 (ip), vehicle: saline) 100 % of control and 106 % of control and 107 % of control; (dose: 240.0 mg/kg/injection, schedule: Q01DX005 (ip), vehicle: saline) 119 % of control.
Turning to `N#CCCN(N)S(=O)(=O)c1ccc(Cl)cc1`, the T/C was 97 % of control under setting [6], 99 % of control under setting [7] and 96 % of control under setting [8].
On to `COc1cc(C=Nc2cccc(Cl)c2)ccc1N(CCCl)CCCl`, for which the T/C by setting is: under setting [9], 172 % of control; under setting [10], 181 % of control.
Regarding `COC(=O)C(CO)NC(=O)C(Cc1ccccc1)NC(=O)OC(C)(C)C` (stereo not drawn) (Boc-Phe-Ser-OMe; configuration not given here), the T/C is, setting by setting: under setting [6], 99 % of control; under setting [7], 105 % of control; under setting [8], 100 % of control.
As for `COc1ccc(O)cc1`, the T/C reads like this: (dose: 12.5 mg/kg/injection, schedule: Q01DX005 (ip), vehicle: saline with Tween-80) 104 % of control; (dose: 25.0 mg/kg/injection, schedule: Q01DX005 (ip), vehicle: saline with Tween-80) 99 % of control; under setting [11], 99 % of control; (dose: 100.0 mg/kg/injection, schedule: Q01DX001 (ip), vehicle: saline with Tween-80) 101 % of control; under setting [12], 99 % of control; (dose: 200.0 mg/kg/injection, schedule: Q01DX001 (ip), vehicle: saline with Tween-80) 102 % of control.
In the case of `O=C(O)CSc1ccc2c3c(cccc13)C(=O)c1ccccc1-2`, the T/C by setting is: (dose: 6.25 mg/kg/injection, schedule: Q01DX009 (ip), vehicle: saline) 100 % of control; (dose: 12.5 mg/kg/injection, schedule: Q01DX009 (ip), vehicle: saline) 99 % of control and 111 % of control; (dose: 25.0 mg/kg/injection, schedule: Q01DX009 (ip), vehicle: saline) 111 % of control; under setting [3], 108 % of control; under setting [5], 104 % of control.
Consider `NSC(=S)NCc1ccco1`, for which the T/C is, setting by setting: under setting [6], 106 % of control and 107 % of control; under setting [7], 101 % of control and 115 % of control; under setting [8], 115 % of control and 119 % of control.
Regarding `O=N[O-].O=N[O-].[I][Pt][I]`, the T/C reads like this: (dose: 12.5 mg/kg/injection, schedule: Q01DX005 (ip), vehicle: saline) 116 % of control and 117 % of control; (dose: 25.0 mg/kg/injection, schedule: Q01DX005 (ip), vehicle: saline) 124 % of control; under setting [2], 105 % of control; under setting [4], 124 % of control.
For the compound `O=C1NCNC(=O)N1`, the T/C by setting is: (dose: 12.5 mg/kg/injection, schedule: Q04DX003 (ip), vehicle: saline with Tween-80) 100 % of control; under setting [9], 98 % of control; under setting [10], 101 % of control; (dose: 100.0 mg/kg/injection, schedule: Q04DX003 (ip), vehicle: saline with Tween-80) 98 % of control.
As to `COc1ccc(N(C)C(=O)c2ccccc2S(=O)(=O)c2ccccc2C(=O)N(C)c2ccc(OC)cc2)cc1`, the T/C by setting is: under setting [11], 104 % of control; under setting [12], 98 % of control; (dose: 200.0 mg/kg/injection, schedule: Q01DX005 (ip), vehicle: saline with Tween-80) 100 % of control.
`COc1ccc(C(O)(C2CC2)C2CC2)cc1`: the T/C was 98 % of control (dose: 100.0 mg/kg/injection, schedule: Q01DX001 (ip), vehicle: Klucel (hydroxypropylcellulose) (HPC)); 94 % of control (dose: 200.0 mg/kg/injection, schedule: Q01DX001 (ip), vehicle: Klucel (hydroxypropylcellulose) (HPC)); 98 % of control (dose: 400.0 mg/kg/injection, schedule: Q01DX001 (ip), vehicle: Klucel (hydroxypropylcellulose) (HPC)).
